Reference: paper PMC10812672, “Short Antimicrobial Peptide Derived from the Venom Gland Transcriptome of Pamphobeteus verdolaga Increases Gentamicin Susceptibility of Multidrug-Resistant Klebsiella pneumoniae” (Antibiotics, 2023)
Ends that are not written are not given here.

Tested on: human peripheral blood mononuclear cells (hPBMCs)
Assay: Cytotoxicity, MTT
Type: cell-based
Description: The cytotoxicity of PvAMP66 was assessed in vitro against human red blood cells (hRBCs) and human peripheral blood mononuclear cells (hPBMCs) using concentrations of 1.56–200 µM. At the highest concentration, PvAMP66 induced 60% hemolysis in human erythrocytes (Figure 3a), and a decrease in viability of approximately 40% in the hPBMCs (Figure 3b). […] Ratios between CC50 or HC50, and the IC50 values registered for the bacterial strains, indicate that PvAMP66 has higher selectivity for interacting with prokaryotic membranes (Table 4).
Ten milliliters of fresh blood was mixed with 10 mL of PBS pH 7.20 in 50 mL conical tubes. Then, 10 mL of Ficoll® density gradient media were placed in 50 mL conical tubes, and then the blood/PBS solution was gently poured over without disturbing the interface. The mixture was centrifuged at RT and 400× g for 30 min with the brake off (Universal 32 R, Hettich Group, Kirchlengern, Westphalia, Germany), and the upper plasma phase was removed and discarded. The leukocyte phase was gently removed from the conical tube, placed in a new 50 mL conical tube, and density gradient media was removed in two washings with 25 mL of PBS pH 7.20 at RT and 400× g for 10 min. Cells were then resuspended in 3 mL of RPMI media. Subsequently, 10 µL of this suspension was mixed with 90 µL of Trypan blue in a 0.50 mL polypropylene vial. The cell count and cell viability were determined in a Neubauer counting chamber. Then, cells were suspended to 3 × 10^5 cells/mL, ensuring that cell viability remained above 98%. All peptides were diluted in RPMI media to final concentrations ranging between 1.56 and 200 µM. Subsequently, 20 µL of each peptide solution was added in triplicate into 96-well plates, along with 80 µL of fresh RPMI media. For negative and positive cytotoxicity controls, six wells received 20 µL of PBS and 30% v/v H2O2, respectively. Blank wells without cells were also included. Next, 100 µL of a cell suspension 3 × 10^5 cells/mL was added to each well, and the plates were incubated for 24 h at 37 °C in a 5% CO2 atmosphere (Heratherm, ThermoFisher Scientific, Waltham, MA, USA). After 24 h, plates were centrifuged at RT and 1000× g for 10 min (Sorvall Legend XFR, ThermoFisher Scientific, Waltham, MA, USA). Then, 180 µL of the supernatant was collected, and 28 µL of a 4 mg/mL sterile MTT solution was added. The plates were then incubated for 4 h at 37 °C in a 5% CO2 atmosphere (Heratherm, ThermoFisher Scientific, Waltham, MA, USA). After the second incubation, 130 µL of DMSO was added to each well and plates were agitated at 50 rpm. The solubilized formazan was then measured at 570 nm using a Multiskan SkyHigh spectrophotometer (ThermoFisher Scientific, Waltham, MA, USA). All peptides were evaluated in three independent assays and the viability percentages were calculated as follows: Viability %=1−AbsPEPTIDE−Median AbsBLANK/Median AbsH2O2−Median AbsBLANK×100

Substance: WKKIKKFF-NH2 [PvAMP66]
- CC50 (Cytotoxic Concentration 50) (hPBMCs in RPMI, 24 h 37 °C 5% CO2, MTT 570 nm, 1.56–200 µM, logistic regression, 95% CI in parentheses, ND = above evaluated range): 172.03 µM
- decrease in viability (hPBMCs, highest concentration (200 µM), 24 h, MTT): approximately 40%
- CC50/IC50 (selectivity index vs IC50 E. coli ATCC 25922): 4.49
- CC50/IC50 (selectivity index vs IC50 K. pneumoniae ATCC BAA-1705): 3.78
- CC50/IC50 (selectivity index vs IC50 MDR K. pneumoniae): 10.89
- CC50/IC50 (selectivity index vs IC50 P. aeruginosa ATCC 9027): 13.58
- CC50/IC50 (selectivity index vs IC50 S. aureus ATCC 29213): 6.24
